Experimental data from article PMC6829864, “Determination of Ligand Profiles for Pseudomonas aeruginosa Solute Binding Proteins” (International Journal of Molecular Sciences, 2019).
Where “and” joins values, the source holds several entries; their conditions need not be identical. Equal entries are not always repeated. Entries after “also recorded” stand apart in the source; their conditions may differ. Where a SMILES comes first, the peptide text is derived from it.

Columns and labels:
PA1074 (braC) = PA1074 (braC) (Pseudomonas aeruginosa, UniProt P21175); assay: biochemical; format: binding, Pseudomonas aeruginosa PAO1
Chain of PA1074 (braC) (P21175 27-373): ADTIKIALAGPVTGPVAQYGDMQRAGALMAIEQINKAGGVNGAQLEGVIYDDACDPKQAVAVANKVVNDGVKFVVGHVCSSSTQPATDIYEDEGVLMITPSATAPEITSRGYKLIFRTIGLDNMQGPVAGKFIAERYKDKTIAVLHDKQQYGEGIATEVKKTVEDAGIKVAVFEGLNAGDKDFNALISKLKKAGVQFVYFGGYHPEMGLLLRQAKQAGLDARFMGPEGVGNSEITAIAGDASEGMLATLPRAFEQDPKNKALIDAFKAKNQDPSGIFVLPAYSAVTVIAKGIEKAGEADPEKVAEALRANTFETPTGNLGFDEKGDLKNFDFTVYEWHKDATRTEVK

[1] = system: Pseudomonas aeruginosa PAO1; format: cell-based; settings: chemoeffector 1 mM; for Chemotaxis: capillary assay, except molybdate 0.1 mM, 30 min
[2] = target: PA4497 (DppA2) solute binding protein of Pseudomonas aeruginosa PAO1 (Pseudomonas aeruginosa PAO1) (UniProt Q9HVS4); assay: differential scanning fluorimetry thermal shift assay
PA4497 (dppA2) = target: T1, PA4497 (dppA2) (Pseudomonas aeruginosa, UniProt Q9HVS4); format: binding; settings: arrays PM3B, PM6, PM7, PM8
T1 sequence (Q9HVS4 25-532): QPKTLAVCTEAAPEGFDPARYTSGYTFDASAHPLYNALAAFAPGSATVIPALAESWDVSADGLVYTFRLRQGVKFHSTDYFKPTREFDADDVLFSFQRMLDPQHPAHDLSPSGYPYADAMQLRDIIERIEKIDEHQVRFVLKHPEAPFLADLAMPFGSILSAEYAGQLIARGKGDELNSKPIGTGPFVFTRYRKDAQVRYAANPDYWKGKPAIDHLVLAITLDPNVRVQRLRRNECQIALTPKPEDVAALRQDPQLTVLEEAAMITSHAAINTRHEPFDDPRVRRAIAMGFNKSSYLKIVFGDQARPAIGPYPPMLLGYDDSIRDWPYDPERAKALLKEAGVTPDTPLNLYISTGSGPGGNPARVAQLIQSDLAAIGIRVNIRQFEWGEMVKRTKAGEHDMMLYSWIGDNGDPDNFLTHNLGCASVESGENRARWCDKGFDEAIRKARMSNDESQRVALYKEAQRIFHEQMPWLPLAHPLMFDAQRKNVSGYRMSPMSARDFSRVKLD

PA3610 (potD) = PA3610 (potD) (Pseudomonas aeruginosa, UniProt Q9HY16); assay: Isothermal titration calorimetry, PA3610; format: binding, Pseudomonas aeruginosa PAO1; settings: 25 °C, read-out: KD by ITC (converted)
Chain of PA3610 (potD) (Q9HY16 21-354): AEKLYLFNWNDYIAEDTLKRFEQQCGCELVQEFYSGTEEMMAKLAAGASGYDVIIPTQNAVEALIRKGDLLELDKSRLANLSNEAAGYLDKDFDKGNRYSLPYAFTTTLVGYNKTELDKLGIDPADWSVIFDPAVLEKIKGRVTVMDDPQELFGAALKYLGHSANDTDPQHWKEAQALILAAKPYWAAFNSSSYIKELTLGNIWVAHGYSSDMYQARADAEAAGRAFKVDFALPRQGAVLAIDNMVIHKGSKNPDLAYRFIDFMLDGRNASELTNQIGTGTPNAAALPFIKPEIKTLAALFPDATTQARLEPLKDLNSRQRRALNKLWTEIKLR

PA4500 (dppA3) [3] = target: T2, PA4500 (dppA3) (Pseudomonas aeruginosa, UniProt Q9HVS1); assay: DSF thermal shift ligand screening, PA4500; format: binding, Pseudomonas aeruginosa PAO1; settings: arrays PM3B, PM6, PM7, PM8
T2 sequence (Q9HVS1 25-533): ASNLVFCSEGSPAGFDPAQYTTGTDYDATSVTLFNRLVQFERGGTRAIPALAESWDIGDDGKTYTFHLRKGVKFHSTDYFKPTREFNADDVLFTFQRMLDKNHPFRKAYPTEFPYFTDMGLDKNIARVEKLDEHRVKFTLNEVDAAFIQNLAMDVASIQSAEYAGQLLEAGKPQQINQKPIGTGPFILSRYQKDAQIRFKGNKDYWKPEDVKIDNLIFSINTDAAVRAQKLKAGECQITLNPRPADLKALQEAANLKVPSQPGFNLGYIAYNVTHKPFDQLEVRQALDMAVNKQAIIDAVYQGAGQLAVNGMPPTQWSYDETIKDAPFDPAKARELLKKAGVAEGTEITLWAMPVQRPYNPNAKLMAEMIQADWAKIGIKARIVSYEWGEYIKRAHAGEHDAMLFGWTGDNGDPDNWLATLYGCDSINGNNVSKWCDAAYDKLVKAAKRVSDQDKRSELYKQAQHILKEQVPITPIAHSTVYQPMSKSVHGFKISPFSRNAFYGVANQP

PA4500 (dppA3) [4] = target: T2, PA4500 (dppA3); assay: Isothermal titration calorimetry, PA4500; format: binding, Pseudomonas aeruginosa PAO1; settings: 25 °C, read-out: KD by ITC (converted)
PA4913 = PA4913 (Pseudomonas aeruginosa, UniProt Q9HUQ0); assay: DSF thermal shift ligand screening, PA4913; format: binding, Pseudomonas aeruginosa PAO1; settings: Tm change vs ligand-free protein
Chain of PA4913 (Q9HUQ0 28-374): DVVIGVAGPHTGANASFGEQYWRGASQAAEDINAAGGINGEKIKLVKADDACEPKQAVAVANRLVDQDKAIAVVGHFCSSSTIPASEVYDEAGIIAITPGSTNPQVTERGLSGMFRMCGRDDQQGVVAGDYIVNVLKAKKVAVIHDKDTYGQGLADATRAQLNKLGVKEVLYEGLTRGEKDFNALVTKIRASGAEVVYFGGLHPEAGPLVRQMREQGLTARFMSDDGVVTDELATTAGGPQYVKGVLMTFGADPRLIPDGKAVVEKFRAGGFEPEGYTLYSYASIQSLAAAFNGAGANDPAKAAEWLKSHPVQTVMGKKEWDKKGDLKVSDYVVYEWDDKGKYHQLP

PA2592 [5] = target: T3, PA2592 (Pseudomonas aeruginosa, UniProt Q9I0P5); assay: DSF thermal shift ligand screening, PA2592; format: binding, Pseudomonas aeruginosa PAO1; settings: arrays PM2A, PM3B, PM5
T3 sequence (Q9I0P5 20-367): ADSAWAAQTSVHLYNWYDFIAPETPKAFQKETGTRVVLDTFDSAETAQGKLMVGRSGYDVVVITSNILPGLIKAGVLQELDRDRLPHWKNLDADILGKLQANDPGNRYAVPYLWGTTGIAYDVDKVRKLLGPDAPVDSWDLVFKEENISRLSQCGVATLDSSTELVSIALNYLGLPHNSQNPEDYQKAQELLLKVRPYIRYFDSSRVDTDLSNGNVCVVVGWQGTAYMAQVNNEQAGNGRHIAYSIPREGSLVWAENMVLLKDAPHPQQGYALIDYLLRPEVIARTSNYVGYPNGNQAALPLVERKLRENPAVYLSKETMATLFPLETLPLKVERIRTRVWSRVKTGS

PA2592 [6] = target: T3, PA2592; assay: biochemical; format: binding
[7] = target: PA4500 (DppA3) (Pseudomonas aeruginosa PAO1) (UniProt Q9HVS1); assay: ITC
Chain of PA4500 (DppA3) (Pseudomonas aeruginosa PAO1) (Q9HVS1 25-533): as the sequence (Q9HVS1 25-533) above

[8] = target: PA4500 (DppA3) solute binding protein of Pseudomonas aeruginosa PAO1 (Pseudomonas aeruginosa PAO1) (UniProt Q9HVS1); assay: differential scanning fluorimetry thermal shift assay
Chain of PA4500 (DppA3) solute binding protein of Pseudomonas aeruginosa PAO1 (Pseudomonas aeruginosa PAO1) (Q9HVS1 25-533): as above

PA1863 (modA) = PA1863 (modA) (Pseudomonas aeruginosa, UniProt Q9I2N2); assay: biochemical; format: binding, Pseudomonas aeruginosa PAO1
Chain of PA1863 (modA) (Q9I2N2 24-251): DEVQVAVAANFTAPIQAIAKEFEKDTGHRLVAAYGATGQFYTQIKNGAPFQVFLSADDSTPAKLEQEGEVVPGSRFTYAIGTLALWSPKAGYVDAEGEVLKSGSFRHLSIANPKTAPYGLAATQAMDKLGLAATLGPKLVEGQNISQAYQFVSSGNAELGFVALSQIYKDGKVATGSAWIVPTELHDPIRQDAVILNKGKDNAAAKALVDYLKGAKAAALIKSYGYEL

With `N[C@@H](CCO)C(=O)O` [L-Homoserine] the Kd (PA1074 (braC)) was 720 nM and the “Chemotaxis response, number of cells per capillary” value ([1]; corrected for buffer capillaries) was “more than 300,000 cells per capillary”.

Work on Ala-Ala-Ala (peptide) yielded a Tm increase (DSF) [2] of 9.1 °C.

`NCC(=O)NCC(=O)N[C@@H](Cc1ccccc1)C(=O)O` [Gly-Gly-Phe] (H-Gly-Gly-Phe-OH) was tested, and the “Tm DSF (Tm increase)” value (PA4497 (dppA2)) was 3.7 °C.

In the case of `NCCCCCN` [Cadaverine], the Kd (PA3610 (potD)) is reported as 65000 nM.

Work on Gly-Gly-Ala (peptide) yielded a Tm increase (DSF) [2] of 7.6 °C.

In the case of Gly-Gly-Ile (peptide), the Tm increase (DSF) [2] is reported as 5.1 °C.

Gly-Phe-Phe (peptide) showed a Tm increase (DSF) [2] of 6.6 °C.

Work on Leu-Leu-Leu (peptide) yielded a Tm increase (DSF) [2] of 5 °C.

For `C[C@H](N)C(=O)N[C@@H](C)C(=O)O` [Ala-Ala] (H-Ala-Ala-OH), the “Tm DSF (Tm increase)” value (PA4500 (dppA3) [3]) was 11 °C and 11.3 °C and the Kd (PA4500 (dppA3) [4]) was 210 ± 20 nM.

In the case of `CCC(N)C(=O)O` (stereo not drawn) [α-aminobutyrate], the “Tm DSF (Tm increase)” value (PA4913) is reported as 8.1 °C.

For `CC(C)[C@H](N)C(=O)N[C@@H](Cc1ccc(O)cc1)C(=O)N[C@H](C(=O)O)C(C)C` [Val-Tyr-Val] (H-Val-Tyr-Val-OH), the Chemotaxis [1] was “Yes (Positive chemotaxis was considered when the number of bacterial cells per capillary was superior to 5000.)” and the “Tm DSF (Tm increase)” value (PA4497 (dppA2)) was 5.0 °C.

With `NCCCCN=C(N)N` [Agmatine] the “Tm DSF (Tm increase)” value (PA2592 [5]) was 5.3 °C and the Kd (PA2592 [6]) was 15000 nM.

`NCC(=O)NC(CO)C(=O)O` (centres unmarked) [Gly-Ser] was tested, and the Chemotaxis [1] was “Yes (Positive chemotaxis was considered when the number of bacterial cells per capillary was superior to 5000.)”.

Ala-Thr (peptide) gave a Ka [7] of 1.09e+06 M⁻¹ and a Tm increase (DSF) [8] of 7 °C.

In the case of Tungstate, the “KD by ITC” value (PA1863 (modA); PA1863 (modA), 25 °C) is reported as “ultra-tightly; also recorded: Ultratight” and the Chemotaxis [1] is reported as “No (Positive chemotaxis was considered when the number of bacterial cells per capillary was superior to 5000.)”.

`[O]=[V]([O-])([O-])[O-]` [Vanadate] was tested, and the “No Binding Observed by ITC” value (PA1863 (modA)) was “did not reveal any binding”.

Gly-Val (peptide) was tested, and the Ka [7] was 157000 M⁻¹ and the Tm increase (DSF) [8] was 2 °C.

With `CC(C)[C@H](NC(=O)CN)C(=O)O` [Gly-Val] (H-Gly-Val-OH) the “Tm DSF (Tm increase)” value (PA4500 (dppA3) [3]) was 2.0 °C and the Kd (PA4500 (dppA3) [4]) was 6300 nM.

In the case of `NCC(=O)NCC(=O)NCC(=O)O` [Gly-Gly-Gly] (H-Gly-Gly-Gly-OH), the “Tm DSF (Tm increase)” value (PA4497 (dppA2)) is reported as 4.4 °C.

Compound Ala-Ala (peptide) has a Ka [7] of 4.71e+06 M⁻¹ and a Tm increase (DSF) [8] of 11.3 °C.

`C[C@H](N)C(=O)N[C@H](C(=O)O)[C@@H](C)O` [Ala-Thr] (H-Ala-Thr-OH; N-terminus and C-terminus assumed) was tested, and the “Tm DSF (Tm increase)” value (PA4500 (dppA3) [3]) was 7 °C and the Kd (PA4500 (dppA3) [4]) was 980 nM.

For `[O]=[Mn](=[O])([O-])[O-]` [manganate], the “No Binding Observed by ITC” value (PA1863 (modA)) was “did not reveal any binding”.

`N[C@@H](Cc1ccccc1)C(=O)NCC(=O)NCC(=O)O` [Phe-Gly-Gly] (H-Phe-Gly-Gly-OH) was tested, and the “Tm DSF (Tm increase)” value (PA4497 (dppA2)) was 8.3 °C.

For `CC(C)[C@H](N)C(=O)O` [L-Val], the Kd (PA1074 (braC)) was 70 nM and the “Tm DSF (Tm increase)” value (PA4913) was 4.1 °C.
